Measured values published in the supplement of paper PMC10307832.

What was measured:
Assay in all cases: relative viability (nuclei count vs DMSO), 5 days (fraction); higher = more cells survive
ABC-1 = system: ABC-1
Method in brief: (§1)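 The day after seeding in 1536-well plates, lung cancer cell lines were treated by pin tool with a single drug, or with a fixed anchor-drug dose together with five library-drug doses (not always all listed) in √10 steps. After 5 days, a combined fix-and-stain solution (final 0.05% Triton X-100, 1% formaldehyde, 1 ug/ml Hoechst) was added. Nuclei counted on 4× images gave relative viability as treated counts over vehicle counts, reported as the median of duplicate plates.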

COR-L23 = system: COR-L23
Method in brief: as §1

EPLC-272H = system: EPLC-272H
Method in brief: as §1

HARA = system: HARA
Method in brief: as §1

HCC-15 = system: HCC-15
Method in brief: as §1

HCC-44 = system: HCC-44
Method in brief: as §1

HOP-62 = system: HOP-62
Method in brief: as §1

LC-2-ad = system: LC-2-ad
Method in brief: as §1

LU99A = system: LU99A
Method in brief: as §1

NCI-H1355 = system: NCI-H1355
Method in brief: as §1

NCI-H1651 = system: NCI-H1651
Method in brief: as §1

NCI-H1915 = system: NCI-H1915
Method in brief: as §1

NCI-H1993 = system: NCI-H1993
Method in brief: as §1

NCI-H2023 = system: NCI-H2023
Method in brief: as §1

NCI-H2085 = system: NCI-H2085
Method in brief: as §1

NCI-H2126 = system: NCI-H2126
Method in brief: as §1

NCI-H2347 = system: NCI-H2347
Method in brief: as §1

NCI-H650 = system: NCI-H650
Method in brief: as §1

NCI-H838 = system: NCI-H838
Method in brief: as §1

PC-14 = system: PC-14
Method in brief: as §1

SW 1573 = system: SW 1573
Method in brief: as §1

UMC-11 = system: UMC-11
Method in brief: as §1

Cc1sc2c(c1C)C(c1ccc(Cl)cc1)=N[C@@H](CC(=O)OC(C)(C)C)c1nnc(C)n1-2 [JQ1] + N=C(N)NC(=N)NCCc1ccccc1 [Phenformin] (partner 250 µM)
relative viability (ABC-1; first compound 0.04 µM): 0.238 | relative viability (ABC-1; first compound 0.1265 µM): 0.282 | relative viability (ABC-1; first compound 0.4 µM): 0.225 | relative viability (ABC-1; first compound 1.265 µM): 0.227 | relative viability (ABC-1; first compound 4 µM): 0.232 | relative viability (COR-L23; first compound 0.04 µM): 0.385 | relative viability (COR-L23; first compound 0.1265 µM): 0.351 | relative viability (COR-L23; first compound 0.4 µM): 0.428 | relative viability (COR-L23; first compound 1.265 µM): 0.222 | relative viability (COR-L23; first compound 4 µM): 0.227 | relative viability (EPLC-272H; first compound 0.04 µM): 0.33 | relative viability (EPLC-272H; first compound 0.1265 µM): 0.262 | relative viability (EPLC-272H; first compound 0.4 µM): 0.249 | relative viability (EPLC-272H; first compound 1.265 µM): 0.294 | relative viability (EPLC-272H; first compound 4 µM): 0.188 | relative viability (HARA; first compound 0.04 µM): 0.465 | relative viability (HARA; first compound 0.1265 µM): 0.236 | relative viability (HARA; first compound 0.4 µM): 0.484 | relative viability (HARA; first compound 1.265 µM): 0.173 | relative viability (HARA; first compound 4 µM): 0.186 | relative viability (HCC-15; first compound 0.04 µM): 0.458 | relative viability (HCC-15; first compound 0.4 µM): 0.318 | relative viability (HCC-15; first compound 1.265 µM): 0.189 | relative viability (HCC-15; first compound 4 µM): 0.19 | relative viability (HCC-44; first compound 0.04 µM): 0.201 | relative viability (HCC-44; first compound 0.1265 µM): 0.184 | relative viability (HCC-44; first compound 0.4 µM): 0.161 | relative viability (HCC-44; first compound 1.265 µM): 0.125 | relative viability (HCC-44; first compound 4 µM): 0.111 | relative viability (HOP-62; first compound 0.04 µM): 0.633 | relative viability (HOP-62; first compound 0.1265 µM): 0.547 | relative viability (HOP-62; first compound 0.4 µM): 0.622 | relative viability (HOP-62; first compound 1.265 µM): 0.182 | relative viability (HOP-62; first compound 4 µM): 0.102 | relative viability (LC-2-ad; first compound 0.04 µM): 0.537 | relative viability (LC-2-ad; first compound 0.1265 µM): 0.468 | relative viability (LC-2-ad; first compound 0.4 µM): 0.401 | relative viability (LC-2-ad; first compound 1.265 µM): 0.222 | relative viability (LC-2-ad; first compound 4 µM): 0.294 | relative viability (LU99A; first compound 0.04 µM): 0.776 | relative viability (LU99A; first compound 0.1265 µM): 0.35 | relative viability (LU99A; first compound 0.4 µM): 0.734 | relative viability (LU99A; first compound 1.265 µM): 0.303 | relative viability (LU99A; first compound 4 µM): 0.26 | relative viability (NCI-H1355; first compound 0.04 µM): 0.45 | relative viability (NCI-H1355; first compound 0.1265 µM): 0.473 | relative viability (NCI-H1355; first compound 0.4 µM): 0.433 | relative viability (NCI-H1355; first compound 1.265 µM): 0.388 | relative viability (NCI-H1355; first compound 4 µM): 0.326 | relative viability (NCI-H1651; first compound 0.04 µM): 0.265 | relative viability (NCI-H1651; first compound 0.1265 µM): 0.249 | relative viability (NCI-H1651; first compound 0.4 µM): 0.305 | relative viability (NCI-H1651; first compound 1.265 µM): 0.245 | relative viability (NCI-H1651; first compound 4 µM): 0.241 | relative viability (NCI-H1915; first compound 0.04 µM): 0.347 | relative viability (NCI-H1915; first compound 0.1265 µM): 0.334 | relative viability (NCI-H1915; first compound 0.4 µM): 0.329 | relative viability (NCI-H1915; first compound 1.265 µM): 0.212 | relative viability (NCI-H1915; first compound 4 µM): 0.177 | relative viability (NCI-H1993; first compound 0.04 µM): 0.49 | relative viability (NCI-H1993; first compound 0.1265 µM): 0.55 | relative viability (NCI-H1993; first compound 0.4 µM): 0.561 | relative viability (NCI-H1993; first compound 1.265 µM): 0.557 | relative viability (NCI-H1993; first compound 4 µM): 0.572 | relative viability (NCI-H2023; first compound 0.04 µM): 0.399 | relative viability (NCI-H2023; first compound 0.1265 µM): 0.354 | relative viability (NCI-H2023; first compound 0.4 µM): 0.307 | relative viability (NCI-H2023; first compound 1.265 µM): 0.177 | relative viability (NCI-H2023; first compound 4 µM): 0.147 | relative viability (NCI-H2085; first compound 0.04 µM): 0.712 | relative viability (NCI-H2085; first compound 0.1265 µM): 0.611 | relative viability (NCI-H2085; first compound 0.4 µM): 0.552 | relative viability (NCI-H2085; first compound 1.265 µM): 0.393 | relative viability (NCI-H2085; first compound 4 µM): 0.426 | relative viability (NCI-H2126; first compound 0.04 µM): 0.552 | relative viability (NCI-H2126; first compound 0.1265 µM): 0.555 | relative viability (NCI-H2126; first compound 0.4 µM): 0.489 | relative viability (NCI-H2126; first compound 1.265 µM): 0.39 | relative viability (NCI-H2126; first compound 4 µM): 0.411 | relative viability (NCI-H2347; first compound 0.04 µM): 0.332 | relative viability (NCI-H2347; first compound 0.1265 µM): 0.504 | relative viability (NCI-H2347; first compound 0.4 µM): 0.323 | relative viability (NCI-H2347; first compound 1.265 µM): 0.358 | relative viability (NCI-H2347; first compound 4 µM): 0.233 | relative viability (NCI-H650; first compound 0.04 µM): 0.418 | relative viability (NCI-H650; first compound 0.1265 µM): 0.358 | relative viability (NCI-H650; first compound 0.4 µM): 0.313 | relative viability (NCI-H650; first compound 1.265 µM): 0.273 | relative viability (NCI-H650; first compound 4 µM): 0.25 | relative viability (NCI-H838; first compound 0.04 µM): 0.554 | relative viability (NCI-H838; first compound 0.1265 µM): 0.285 | relative viability (NCI-H838; first compound 0.4 µM): 0.372 | relative viability (NCI-H838; first compound 1.265 µM): 0.253 | relative viability (NCI-H838; first compound 4 µM): 0.17 | relative viability (PC-14; first compound 0.04 µM): 0.485 | relative viability (PC-14; first compound 0.1265 µM): 0.237 | relative viability (PC-14; first compound 0.4 µM): 0.432 | relative viability (PC-14; first compound 1.265 µM): 0.154 | relative viability (PC-14; first compound 4 µM): 0.167 | relative viability (SW 1573; first compound 0.04 µM): 0.331 | relative viability (SW 1573; first compound 0.1265 µM): 0.304 | relative viability (SW 1573; first compound 0.4 µM): 0.402 | relative viability (SW 1573; first compound 1.265 µM): 0.231 | relative viability (SW 1573; first compound 4 µM): 0.233 | relative viability (UMC-11; first compound 0.04 µM): 0.29 | relative viability (UMC-11; first compound 0.1265 µM): 0.211 | relative viability (UMC-11; first compound 0.4 µM): 0.231 | relative viability (UMC-11; first compound 1.265 µM): 0.224 | relative viability (UMC-11; first compound 4 µM): 0.195
